In article PMC4710522, “A Novel Triazolopyridine-Based Spleen Tyrosine Kinase Inhibitor That Arrests Joint Inflammation” (PLoS ONE, 2016):

Tests used:
ALK_h = target: T1, ALK_h (Homo sapiens, UniProt Q9UM73); assay: SelectScreen kinase assay; type: biochemical; conditions: KM ATP, read-out: % control
T1 construct: purchased Life Technologies (Invitrogen) SelectScreen, Z'-LYTE / Adapta
Method: (§1) Syk kinase mode of inhibition studies, including parameters described in Fig 1, were conducted on the LC3000 platform by Caliper Life Sciences (Hopkinton, MA) according to standard protocols developed by the supplier. […] Non-kinase enzyme assays and GPCR, ion channel, and transporter binding assays were run by CEREP (France). Non-GLP manual patch clamp hERG assays were run by ChanTest (Cleveland, Ohio). Vivid® Assay kits (Life Technologies) were used to measure the cytochrome P450 inhibition of the compound against CYP3A, CYP2C9, CYP2C19, CYP2D6, and CYP1A2, as described.
(§2) Kinase activity was measured using either the Z’-Lyte® or the Adapta® protocols as part of the SelectScreen™ profiling service offered at Life Technologies (Grand Island, NY). For the single point measurements (Part A), CC-509 was kept constant at 3 µM while ATP concentrations [ATP] used were at the KM for ATP (KM ATP) for that specific enyzme, at 10 or 100 µM ATP (10 ATP or 100 ATP, respectively), as indicated. Values expressed as percent control (% control) relative to DMSO-only wells (uninhibited, 100%).
(§3) Kinase activity was measured using either the Z’-Lyte® or the Adapta® protocols as part of the SelectScreen™ profiling service offered at Life Technologies (Grand Island, NY). […] Values expressed as percent control (% control) relative to DMSO-only wells (uninhibited, 100%).

MST2_h = target: T2, MST2_h (Homo sapiens, UniProt Q13188); assay: SelectScreen kinase assay; type: biochemical; conditions: KM ATP, read-out: % control
T2 construct: purchased Life Technologies (Invitrogen) SelectScreen, Z'-LYTE / Adapta
Method: as §1, §2, §3

PTK2B_h = target: T3, PTK2B_h (Homo sapiens, UniProt Q14289); assay: SelectScreen kinase assay; type: biochemical; conditions: KM ATP, read-out: % control
T3 construct: purchased Life Technologies (Invitrogen) SelectScreen, Z'-LYTE / Adapta
Method: as §1, §2, §3

PAK2_h = target: T4, PAK2_h (Homo sapiens, UniProt Q13177); assay: SelectScreen kinase assay; type: biochemical; conditions: KM ATP, read-out: % control
T4 construct: purchased Life Technologies (Invitrogen) SelectScreen, Z'-LYTE / Adapta
Method: as §1, §2, §3

Ret_Y791F_h = target: T5, Ret_Y791F_h (Homo sapiens, UniProt P07949, Y791F); assay: SelectScreen kinase assay; type: biochemical; conditions: KM ATP, read-out: % control
T5 construct: purchased Life Technologies (Invitrogen) SelectScreen, Z'-LYTE / Adapta
Method: as §1, §2, §3

CaMKII-beta_h = target: T6, CaMKII-beta_h (Homo sapiens, UniProt Q13554); assay: SelectScreen kinase assay; type: biochemical; conditions: KM ATP, read-out: % control
T6 construct: purchased Life Technologies (Invitrogen) SelectScreen, Z'-LYTE / Adapta
Method: as §1, §2, §3

PKC-mu_h = target: T7, PKC-mu_h (Homo sapiens, UniProt Q15139); assay: SelectScreen kinase assay; type: biochemical; conditions: KM ATP, read-out: % control
T7 construct: purchased Life Technologies (Invitrogen) SelectScreen, Z'-LYTE / Adapta
Method: as §1, §2, §3

BRAF = target: T8, BRAF (Homo sapiens, UniProt P15056); assay: SelectScreen kinase assay; type: biochemical; conditions: 100 µM ATP, read-out: % control
T8 construct: purchased Life Technologies (Invitrogen) SelectScreen, Z'-LYTE / Adapta
Method: as §1, §2, §3

JNK1-alpha1_h = target: T9, JNK1-alpha1_h (Homo sapiens, UniProt P45983); assay: SelectScreen kinase assay; type: biochemical; conditions: 100 µM ATP, read-out: % control
T9 construct: purchased Life Technologies (Invitrogen) SelectScreen, Z'-LYTE / Adapta
Method: as §1, §2, §3

Syk = Syk (Homo sapiens, UniProt P43405); assay: Syk HTRF assay; type: biochemical; parameters: purchased Carna Biosciences 08-176; conditions: in-house, mean ± SD, n = 8
Method: CC-509 was prepared at a concentration of 1.5 mM in dimethyl sulfoxide (DMSO) followed by 3-fold dilutions in Greiner 384 well polypropylene plates. […] Time resolved fluorescence was read in assay plates on a PerkinElmer EnVision. […] The IC50 value was determined as described in the data fitting section below.
For the TEL-Syk assay, the intensity values for the 700 and 800 channel were exported as text files in ActivityBase (IDBS, Guildford, UK) to derive the ratios that reflect kinase activity. […] For the JAK2 HEL and Ramos NFAT β-lactamase assays, the fluorescence values obtained at 460 nm and 530 nm were exported into ActivityBase to calculate response ratios. […] Evans blue dye extravasation was expressed as mean ± SEM and % inhibition for the test article groups was normalized to the cromolyn positive control. […] The mean data from each group was plotted and either the AUC(day 11–18) or % inhibition on day 18 was calculated. Data is expressed as mean ± SEM of each group with n = 6–12. […]

human KDR in Hek cells = target: T10, human KDR in Hek cells (Homo sapiens, UniProt P35968); assay: KDR cellular selectivity assay (VEGF-induced KDR autophosphorylation); type: cell-based
T10 construct: host or cells: HEK293
Method: HEK KDR cells were plated on 96-well flat bottom plates for 16 hours in a tissue culture incubator. […] Briefly, cells on plates were lysed with Mesoscale lysis buffer (containing phosphatase/ proteinase inhibitors and 0.05% SDS), frozen at -80°C for 2 hours, and then placed on an orbital shaker at 4°C for 16 hours. Cell lysate was transferred to a blocked phopsho-KDR plate, incubated at room temperature for 2 hours, washed twice, and blotted dry. The detection antibody was added to all wells on the plate, incubated for 2 hours at room temperature on an orbital shaker, and plate was washed three times. Diluted Mesoscale detection solution was added to each well and the plates were read on the Sector Imager instrument (Mesoscale, Gaithersberg, MD).
For the neutrophil, macrophage, KDR, and JAK1/3 assays, raw values were exported into ActivityBase to calculate percent inhibition. All IC50 calculations were generated using XLfit (IDBS, Guildford, UK) algorithm 205 within Excel.

ZIPK_h = target: T11, ZIPK_h (Homo sapiens, UniProt O43293); assay: SelectScreen kinase assay; type: biochemical; conditions: KM ATP, read-out: % control
T11 construct: purchased Life Technologies (Invitrogen) SelectScreen, Z'-LYTE / Adapta
T11 sequence (O43293 whole entry): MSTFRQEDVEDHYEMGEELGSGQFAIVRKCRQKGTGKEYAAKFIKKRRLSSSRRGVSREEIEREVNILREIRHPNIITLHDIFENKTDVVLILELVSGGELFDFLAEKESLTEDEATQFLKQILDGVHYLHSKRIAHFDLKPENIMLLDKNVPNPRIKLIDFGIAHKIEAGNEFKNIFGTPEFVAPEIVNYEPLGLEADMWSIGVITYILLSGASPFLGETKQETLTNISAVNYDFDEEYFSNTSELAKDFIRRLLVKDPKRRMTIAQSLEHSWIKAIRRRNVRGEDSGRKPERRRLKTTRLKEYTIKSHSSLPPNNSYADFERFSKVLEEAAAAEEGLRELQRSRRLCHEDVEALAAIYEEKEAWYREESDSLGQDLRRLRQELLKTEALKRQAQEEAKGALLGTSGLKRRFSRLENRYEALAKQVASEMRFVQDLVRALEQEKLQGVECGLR

T10 sequence (P35968 20-1356): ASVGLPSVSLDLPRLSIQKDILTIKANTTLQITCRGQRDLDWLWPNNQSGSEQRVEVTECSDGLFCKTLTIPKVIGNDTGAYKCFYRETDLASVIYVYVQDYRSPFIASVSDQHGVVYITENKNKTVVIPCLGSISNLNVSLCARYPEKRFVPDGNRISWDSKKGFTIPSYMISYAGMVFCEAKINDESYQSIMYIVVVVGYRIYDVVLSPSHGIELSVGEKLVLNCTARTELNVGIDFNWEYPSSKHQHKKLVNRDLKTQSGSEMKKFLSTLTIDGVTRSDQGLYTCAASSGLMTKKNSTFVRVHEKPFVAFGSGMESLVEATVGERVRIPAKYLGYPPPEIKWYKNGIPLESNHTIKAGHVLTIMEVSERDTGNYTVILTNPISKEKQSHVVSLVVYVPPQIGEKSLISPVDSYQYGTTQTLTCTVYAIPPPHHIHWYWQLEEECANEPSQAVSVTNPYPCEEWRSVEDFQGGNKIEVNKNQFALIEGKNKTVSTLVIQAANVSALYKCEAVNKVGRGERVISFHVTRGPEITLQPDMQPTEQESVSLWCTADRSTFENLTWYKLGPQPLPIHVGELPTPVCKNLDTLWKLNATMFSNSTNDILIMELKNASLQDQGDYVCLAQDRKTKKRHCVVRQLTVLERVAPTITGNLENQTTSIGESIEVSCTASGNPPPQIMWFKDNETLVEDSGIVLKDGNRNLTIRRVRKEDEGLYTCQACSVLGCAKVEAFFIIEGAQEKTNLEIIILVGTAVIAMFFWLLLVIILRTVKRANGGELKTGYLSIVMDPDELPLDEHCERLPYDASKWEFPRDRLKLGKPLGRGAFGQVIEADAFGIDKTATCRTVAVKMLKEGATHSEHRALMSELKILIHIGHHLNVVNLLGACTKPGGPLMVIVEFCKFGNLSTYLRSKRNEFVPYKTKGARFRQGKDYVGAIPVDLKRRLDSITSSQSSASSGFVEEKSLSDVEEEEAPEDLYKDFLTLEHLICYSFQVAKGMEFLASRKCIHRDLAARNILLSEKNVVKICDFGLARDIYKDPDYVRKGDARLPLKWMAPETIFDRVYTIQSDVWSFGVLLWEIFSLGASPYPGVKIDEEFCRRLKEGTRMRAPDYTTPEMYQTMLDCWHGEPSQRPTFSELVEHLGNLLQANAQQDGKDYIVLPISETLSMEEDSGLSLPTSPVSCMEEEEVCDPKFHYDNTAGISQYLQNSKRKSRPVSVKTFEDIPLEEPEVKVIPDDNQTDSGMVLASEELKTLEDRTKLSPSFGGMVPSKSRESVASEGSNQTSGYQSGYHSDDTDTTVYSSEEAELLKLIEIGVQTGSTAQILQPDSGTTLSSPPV
T8 sequence (P15056 whole entry): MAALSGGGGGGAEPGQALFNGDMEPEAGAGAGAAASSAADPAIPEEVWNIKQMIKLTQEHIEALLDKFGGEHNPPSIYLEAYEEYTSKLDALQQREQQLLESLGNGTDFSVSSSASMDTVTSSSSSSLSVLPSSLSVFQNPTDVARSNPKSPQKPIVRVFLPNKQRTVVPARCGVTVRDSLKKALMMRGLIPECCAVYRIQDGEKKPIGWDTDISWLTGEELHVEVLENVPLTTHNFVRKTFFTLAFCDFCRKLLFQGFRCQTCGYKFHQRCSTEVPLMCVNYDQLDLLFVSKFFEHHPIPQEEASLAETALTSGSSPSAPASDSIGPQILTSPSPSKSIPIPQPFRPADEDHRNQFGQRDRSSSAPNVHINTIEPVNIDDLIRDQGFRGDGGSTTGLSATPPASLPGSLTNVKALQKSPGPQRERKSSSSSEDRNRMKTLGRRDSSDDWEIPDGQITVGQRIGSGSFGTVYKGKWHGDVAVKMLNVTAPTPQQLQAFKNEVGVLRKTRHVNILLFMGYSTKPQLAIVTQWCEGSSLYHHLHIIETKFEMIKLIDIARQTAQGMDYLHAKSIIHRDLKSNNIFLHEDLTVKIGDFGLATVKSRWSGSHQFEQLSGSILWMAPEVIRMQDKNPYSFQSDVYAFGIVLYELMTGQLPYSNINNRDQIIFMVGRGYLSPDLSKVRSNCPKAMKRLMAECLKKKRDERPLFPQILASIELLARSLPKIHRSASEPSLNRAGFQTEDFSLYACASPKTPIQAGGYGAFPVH
T7 sequence (Q15139 whole entry): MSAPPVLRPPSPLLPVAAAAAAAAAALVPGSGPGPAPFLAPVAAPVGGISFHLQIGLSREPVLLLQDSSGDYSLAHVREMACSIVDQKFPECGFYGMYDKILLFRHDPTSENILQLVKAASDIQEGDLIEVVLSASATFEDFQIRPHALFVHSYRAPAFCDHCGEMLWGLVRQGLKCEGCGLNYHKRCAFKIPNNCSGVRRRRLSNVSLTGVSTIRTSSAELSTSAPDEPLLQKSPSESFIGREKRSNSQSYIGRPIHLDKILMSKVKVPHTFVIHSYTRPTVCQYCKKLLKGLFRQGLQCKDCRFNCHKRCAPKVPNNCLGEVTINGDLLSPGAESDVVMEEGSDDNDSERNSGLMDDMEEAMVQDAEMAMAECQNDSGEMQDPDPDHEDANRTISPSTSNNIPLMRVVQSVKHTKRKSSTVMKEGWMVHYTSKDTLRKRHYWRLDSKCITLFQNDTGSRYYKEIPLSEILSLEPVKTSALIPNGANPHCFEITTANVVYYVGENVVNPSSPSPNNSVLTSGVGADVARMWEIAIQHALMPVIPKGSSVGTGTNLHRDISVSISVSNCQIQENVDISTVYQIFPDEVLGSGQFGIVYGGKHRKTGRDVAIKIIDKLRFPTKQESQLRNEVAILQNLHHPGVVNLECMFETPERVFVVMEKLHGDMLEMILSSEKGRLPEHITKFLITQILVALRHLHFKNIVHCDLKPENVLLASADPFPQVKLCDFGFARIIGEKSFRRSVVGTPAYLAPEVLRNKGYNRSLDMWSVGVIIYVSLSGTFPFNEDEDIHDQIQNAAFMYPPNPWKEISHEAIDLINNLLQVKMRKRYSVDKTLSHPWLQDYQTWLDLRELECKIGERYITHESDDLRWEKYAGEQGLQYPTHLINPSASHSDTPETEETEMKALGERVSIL
T2 sequence (Q13188 whole entry): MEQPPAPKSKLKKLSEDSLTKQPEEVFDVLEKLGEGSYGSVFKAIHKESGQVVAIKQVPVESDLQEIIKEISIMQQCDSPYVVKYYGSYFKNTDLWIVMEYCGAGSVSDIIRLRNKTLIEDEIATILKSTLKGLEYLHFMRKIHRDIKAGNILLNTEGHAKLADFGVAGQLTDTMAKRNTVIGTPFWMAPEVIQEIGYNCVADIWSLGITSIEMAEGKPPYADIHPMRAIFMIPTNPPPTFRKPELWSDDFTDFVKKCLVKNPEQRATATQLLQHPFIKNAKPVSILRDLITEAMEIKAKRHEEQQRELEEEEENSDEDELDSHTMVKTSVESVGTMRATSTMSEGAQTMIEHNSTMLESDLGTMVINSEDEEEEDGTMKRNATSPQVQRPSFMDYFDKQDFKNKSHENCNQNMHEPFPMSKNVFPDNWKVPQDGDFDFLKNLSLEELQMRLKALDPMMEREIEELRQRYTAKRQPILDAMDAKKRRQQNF
T3 sequence (Q14289 whole entry): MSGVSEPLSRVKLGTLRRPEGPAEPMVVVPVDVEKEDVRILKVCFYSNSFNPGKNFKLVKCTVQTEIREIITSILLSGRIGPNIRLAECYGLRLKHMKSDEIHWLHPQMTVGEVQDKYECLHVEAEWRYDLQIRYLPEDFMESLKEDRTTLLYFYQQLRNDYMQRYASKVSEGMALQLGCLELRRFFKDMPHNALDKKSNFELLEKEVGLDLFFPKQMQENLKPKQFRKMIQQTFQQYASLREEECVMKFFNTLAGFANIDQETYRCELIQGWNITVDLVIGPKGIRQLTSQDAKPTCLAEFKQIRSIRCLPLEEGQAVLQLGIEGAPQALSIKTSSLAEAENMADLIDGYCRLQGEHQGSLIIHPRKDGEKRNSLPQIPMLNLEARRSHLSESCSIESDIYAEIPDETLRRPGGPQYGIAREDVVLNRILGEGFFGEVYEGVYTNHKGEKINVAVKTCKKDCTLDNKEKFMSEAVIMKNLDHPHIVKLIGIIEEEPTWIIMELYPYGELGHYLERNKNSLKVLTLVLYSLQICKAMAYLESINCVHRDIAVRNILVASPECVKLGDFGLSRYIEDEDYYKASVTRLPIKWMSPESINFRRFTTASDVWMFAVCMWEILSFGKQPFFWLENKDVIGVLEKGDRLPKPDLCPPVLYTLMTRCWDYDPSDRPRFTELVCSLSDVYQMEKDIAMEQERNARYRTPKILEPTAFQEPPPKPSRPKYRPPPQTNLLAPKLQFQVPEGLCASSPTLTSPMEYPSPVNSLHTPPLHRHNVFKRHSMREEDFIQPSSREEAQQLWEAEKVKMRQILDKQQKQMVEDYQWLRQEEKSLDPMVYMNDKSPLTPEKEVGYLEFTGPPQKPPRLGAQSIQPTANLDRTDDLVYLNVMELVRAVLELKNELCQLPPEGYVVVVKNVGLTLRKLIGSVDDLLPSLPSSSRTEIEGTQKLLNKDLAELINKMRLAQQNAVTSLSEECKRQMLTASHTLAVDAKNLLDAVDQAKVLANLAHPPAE

c1cc(CC2CCOCC2)n2nc(Nc3ccc4c(NC5CCOCC5)n[nH]c4c3)nc2c1 [CC-509, [3-(2H-3,4,5,6-tetrahydropyran-4-ylamino)(1H-indazol-6-yl)][5-(2H-3,4,5,6-tetrahydropyran-4-ylmethyl)(2H-1,2,4-triazolo[1,5-a]pyridin-2-yl)]amine]
remaining activity at 3 µM (ALK_h): 45% | remaining activity at 3 µM (MST2_h): 46% | remaining activity at 3 µM (PTK2B_h): 50% | remaining activity at 3 µM (PAK2_h): 85% | remaining activity at 3 µM (Ret_Y791F_h): 18% | remaining activity at 3 µM (CaMKII-beta_h): 104% | remaining activity at 3 µM (PKC-mu_h): 34% | remaining activity at 3 µM (BRAF): 83% | remaining activity at 3 µM (JNK1-alpha1_h): 88% | IC50 (Syk): 0.026 ± 0.006 µM | IC50 (human KDR in Hek cells; Hek cells): 7.43 ± 3.36 µM | fold difference in potency between R406 and CC-509, KDR cellular assay (human KDR in Hek cells; R406 more potent): 10 fold | remaining activity at 3 µM (ZIPK_h): 96%
